Measurements reported in patent EP4166651A1, “METHODS AND COMPOSITION TO INCREASE CELLULAR GLUTATHIONE LEVEL” (priority 2021, dated 2023).
Where a SMILES comes first, the peptide text is derived from it. Bridges are numbered along the chain shown (N, C = ends). Roman numbers before positions name the chains, in order.

Key:
[1] = test system: human bone marrow stromal cells, mesenchymal stem cells (MSC)
Description: The assay was performed with human bone marrow stromal cells, mesenchymal stem cells (MSC). In a first step, the cells were seeded in a white 96-well cell culture plate and incubated for 24 h in a CO2-Incubator (37°C, 5% CO2, 95% humidity) at a cell density of 5.000 cells/well. After the resting time of 24 hours, diluted samples containing test compounds were added to the plate in equal volumes of 50 µl to reach the desired concentrations of interest and a final volume of 100 µl per well. Samples of L-cysteine were compared to Cys-peptides and each sample was tested in triplicates. The control was rested in medium without sample. […] The viability was determined based on the quantification of the ATP present in the cells per well. Through the luminescence detection of luciferase using a multiplate reader the ATP amount was measured and quantified. Resulting luminescence signal of samples was normalized to the signal of control cells. […] The viability was determined based on the quantification of the ATP present in the cells per well. Through the luminescence detection of luciferase using a multiplate reader the ATP amount was measured and quantified. Resulting luminescence signal of samples was normalized to the signal of control cells.

[2] = test system: Chinese hamster ovary cells (CHO-K1); assay: In vitro Glutathione assay (GSH/GSSG-Glo) after H2O2-induced oxidative stress; type: cell-based; details: 24 h pre-incubation or constant incubation, 100 µM H2O2 for 20 min, with and without FBS, compared to medium control not treated with H2O2
Description: The addition of Cys-peptides and mixtures of Cys-peptides with L-cysteine and L-cystine to the cell culture medium was evaluated regarding their influence on the intracellular glutathione level. Oxidative stress was simulated by the addition of hydrogen peroxide solution. The assay was performed with Chinese hamster ovary cells (CHO-K1). […] In relation to the oxidative stress conditions the cells were pre-incubated or constantly incubated with Cys-peptide samples. […] The samples (Ala-Cys)2 and (Lys-Cys)2 were dissolved in culture medium, either containing 10% fetal bovine serum (FBS) or medium without FBS, to perform the assay setup in presence and absence of FBS during the stress phase. […] This leads to luminescence signals which were measured in a multiplate reader. To calculate the GSH concentrations, a dilution series of a glutathione standard was performed, and luminescence signals measured. Relative luminescence signals were plotted against GSH concentrations. After subtracting the background signals, GSH concentration in samples was calculated based on the linear standard curve. […] After luminescence signals were measured, the intracellular glutathione concentration of cells incubated with Cys-peptides and mixtures and treated with 100 µM H2O2 were compared to a medium control, which was not treated with H2O2.

[3] = cell culture media relevant pH of about 7; cited from earlier work

Row | Structure (SMILES) | viability of MSCs [1] | intracellular glutathione level [2] | solubility [3]
1 | C[C@H](N)C(=O)N[C@@H](CSSC[C@H](NC(=O)[C@H](C)N)C(=O)O)C(=O)O [(Ala-Cys)2, N,N'-di-L-alanyl-L-cystine] (I: H-Ala-Cys-OH / II: H-Ala-Cys-OH; disulfide I:2-II:2) | does not have a negative effect on the viability |  | 
2 | N[C@@H](CS)C(=O)O [L-Cysteine] | negatively affects viability | increase intracellular glutathione concentration | 
3 | N[C@@H](CSSC[C@H](N)C(=O)O)C(=O)O [cystine, L-cystine] |  |  | around 1 mM
